From PubChem BioAssay (NCI)
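Where inhibition never reached the appropriate level, the endpoint shown equals the highest concentration tested. Otherwise, values were interpolated linearly from a five-concentration, 48-hour dose response in 96-well plates. TGI marks complete inhibition of growth.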

Key:
Experiment in all cases: DTP human tumour cell line panel, 48 h
786-0 renal = test system: 786-0 renal
A498 renal = test system: A498 renal
A549 NSCLC = test system: A549 NSCLC
CAKI-1 renal = test system: CAKI-1 renal
CCRF-CEM leukemia = test system: CCRF-CEM leukemia
COLO 205 colon = test system: COLO 205 colon
DU-145 prostate = test system: DU-145 prostate
EKVX NSCLC = test system: EKVX NSCLC
HCT-116 colon = test system: HCT-116 colon
HL-60(TB) leukemia = test system: HL-60(TB) leukemia
HOP-62 NSCLC = test system: HOP-62 NSCLC
HOP-92 NSCLC = test system: HOP-92 NSCLC
HS 578T breast = test system: HS 578T breast
HT29 colon = test system: HT29 colon
IGROV1 ovarian = test system: IGROV1 ovarian
K-562 leukemia = test system: K-562 leukemia
KM12 colon = test system: KM12 colon
LOX IMVI melanoma = test system: LOX IMVI melanoma
M14 melanoma = test system: M14 melanoma
MALME-3M melanoma = test system: MALME-3M melanoma
MCF7 breast = test system: MCF7 breast
MDA-MB-231 breast = test system: MDA-MB-231 breast
MDA-MB-435 = test system: MDA-MB-435
MOLT-4 leukemia = test system: MOLT-4 leukemia
NCI-H226 lung = test system: NCI-H226 lung
NCI-H23 lung = test system: NCI-H23 lung
NCI-H460 lung = test system: NCI-H460 lung
NCI-H522 lung = test system: NCI-H522 lung
NCI/ADR-RES ovarian = test system: NCI/ADR-RES ovarian
OVCAR-3 ovarian = test system: OVCAR-3 ovarian
OVCAR-4 ovarian = test system: OVCAR-4 ovarian
OVCAR-5 ovarian = test system: OVCAR-5 ovarian
PC-3 prostate = test system: PC-3 prostate
RPMI-8226 leukemia = test system: RPMI-8226 leukemia
RXF 393 renal = test system: RXF 393 renal
SF-268 CNS = test system: SF-268 CNS
SF-295 CNS = test system: SF-295 CNS
SF-539 CNS = test system: SF-539 CNS
SK-MEL-2 melanoma = test system: SK-MEL-2 melanoma
SK-MEL-5 melanoma = test system: SK-MEL-5 melanoma
SK-OV-3 ovarian = test system: SK-OV-3 ovarian
SN12C renal = test system: SN12C renal
SNB-19 CNS = test system: SNB-19 CNS
SNB-75 CNS = test system: SNB-75 CNS
SR leukemia = test system: SR leukemia
SW-620 colon = test system: SW-620 colon
T-47D breast = test system: T-47D breast
TK-10 renal = test system: TK-10 renal
U251 CNS = test system: U251 CNS
UACC-257 melanoma = test system: UACC-257 melanoma
UACC-62 melanoma = test system: UACC-62 melanoma
UO-31 renal = test system: UO-31 renal
ACHN renal = test system: ACHN renal
BT-549 breast = test system: BT-549 breast
HCC-2998 colon = test system: HCC-2998 colon
HCT-15 colon = test system: HCT-15 colon
OVCAR-8 ovarian = test system: OVCAR-8 ovarian
SK-MEL-28 melanoma = test system: SK-MEL-28 melanoma

**Q.** With `CCCCCCN1C(=O)CC(=O)N(CCCCCC)S1(=O)=O` as the molecule, how does the TGI (786-0 renal) read?
**A.** 35.8 µM

**Q.** And the TGI (A498 renal)?
**A.** 27.8 µM

**Q.** What about the TGI (A549 NSCLC) of the same molecule?
**A.** > 100 µM

**Q.** And the TGI (CAKI-1 renal)?
**A.** 50.7 µM

**Q.** And the TGI (CCRF-CEM leukemia)?
**A.** 40.9 µM

**Q.** And the TGI (COLO 205 colon)?
**A.** 34.6 µM

**Q.** And the TGI (DU-145 prostate)?
**A.** > 100 µM

**Q.** And the TGI (EKVX NSCLC)?
**A.** 41 µM

**Q.** And the TGI (HCT-116 colon)?
**A.** > 100 µM

**Q.** And the TGI (HL-60(TB) leukemia)?
**A.** 48.9 µM

**Q.** And the TGI (HOP-62 NSCLC)?
**A.** 35.9 µM

**Q.** And the TGI (HOP-92 NSCLC)?
**A.** 25.6 µM

**Q.** And the TGI (HS 578T breast)?
**A.** 45.9 µM

**Q.** What about the TGI (HT29 colon) of the same molecule?
**A.** 46.8 µM

**Q.** What about the TGI (IGROV1 ovarian) of the same molecule?
**A.** 25.9 µM

**Q.** What about the TGI (K-562 leukemia) of the same molecule?
**A.** > 100 µM

**Q.** What about the TGI (KM12 colon) of the same molecule?
**A.** > 100 µM

**Q.** And the TGI (LOX IMVI melanoma)?
**A.** 36 µM

**Q.** What about the TGI (M14 melanoma) of the same molecule?
**A.** > 100 µM

**Q.** What about the TGI (MALME-3M melanoma) of the same molecule?
**A.** 72.8 µM

**Q.** What about the TGI (MCF7 breast) of the same molecule?
**A.** > 100 µM

**Q.** What about the TGI (MDA-MB-231 breast) of the same molecule?
**A.** 33.2 µM

**Q.** And the TGI (MDA-MB-435)?
**A.** 53.5 µM

**Q.** And the TGI (MOLT-4 leukemia)?
**A.** 51.6 µM

**Q.** What about the TGI (NCI-H226 lung) of the same molecule?
**A.** > 100 µM

**Q.** What about the TGI (NCI-H23 lung) of the same molecule?
**A.** 75.2 µM

**Q.** And the TGI (NCI-H460 lung)?
**A.** > 100 µM

**Q.** And the TGI (NCI-H522 lung)?
**A.** 27.4 µM

**Q.** What about the TGI (NCI/ADR-RES ovarian) of the same molecule?
**A.** 49.5 µM

**Q.** And the TGI (OVCAR-3 ovarian)?
**A.** 52.1 µM

**Q.** What about the TGI (OVCAR-4 ovarian) of the same molecule?
**A.** 41 µM

**Q.** And the TGI (OVCAR-5 ovarian)?
**A.** 41.1 µM

**Q.** What about the TGI (PC-3 prostate) of the same molecule?
**A.** 60 µM

**Q.** What about the TGI (RPMI-8226 leukemia) of the same molecule?
**A.** 47.2 µM

**Q.** What about the TGI (RXF 393 renal) of the same molecule?
**A.** 34.1 µM

**Q.** What about the TGI (SF-268 CNS) of the same molecule?
**A.** 36.9 µM

**Q.** What about the TGI (SF-295 CNS) of the same molecule?
**A.** 35.9 µM

**Q.** And the TGI (SF-539 CNS)?
**A.** 41.9 µM

**Q.** What about the TGI (SK-MEL-2 melanoma) of the same molecule?
**A.** 28.5 µM

**Q.** And the TGI (SK-MEL-5 melanoma)?
**A.** 44.2 µM

**Q.** And the TGI (SK-OV-3 ovarian)?
**A.** 51.5 µM

**Q.** What about the TGI (SN12C renal) of the same molecule?
**A.** 37.1 µM

**Q.** What about the TGI (SNB-19 CNS) of the same molecule?
**A.** > 100 µM

**Q.** What about the TGI (SNB-75 CNS) of the same molecule?
**A.** 32.7 µM

**Q.** What about the TGI (SR leukemia) of the same molecule?
**A.** 61 µM

**Q.** What about the TGI (SW-620 colon) of the same molecule?
**A.** 41.9 µM

**Q.** What about the TGI (T-47D breast) of the same molecule?
**A.** > 100 µM

**Q.** And the TGI (TK-10 renal)?
**A.** 41.6 µM

**Q.** And the TGI (U251 CNS)?
**A.** 33.1 µM

**Q.** And the TGI (UACC-257 melanoma)?
**A.** > 100 µM

**Q.** What about the TGI (UACC-62 melanoma) of the same molecule?
**A.** 34.3 µM

**Q.** And the TGI (UO-31 renal)?
**A.** 3.46 µM

**Q.** With `O=[N+]([O-])/C(C(Cl)=C(Cl)Cl)=C1\NCCS1` as the molecule, how does the TGI (786-0 renal) read?
**A.** > 100 µM

**Q.** And the TGI (A498 renal)?
**A.** > 100 µM

**Q.** And the TGI (A549 NSCLC)?
**A.** > 100 µM

**Q.** What about the TGI (ACHN renal) of the same molecule?
**A.** > 100 µM

**Q.** And the TGI (BT-549 breast)?
**A.** > 100 µM

**Q.** And the TGI (CAKI-1 renal)?
**A.** > 100 µM

**Q.** And the TGI (CCRF-CEM leukemia)?
**A.** 46.2 µM

**Q.** And the TGI (COLO 205 colon)?
**A.** > 100 µM

**Q.** And the TGI (DU-145 prostate)?
**A.** > 100 µM

**Q.** What about the TGI (EKVX NSCLC) of the same molecule?
**A.** > 100 µM

**Q.** What about the TGI (HCC-2998 colon) of the same molecule?
**A.** > 100 µM

**Q.** And the TGI (HCT-116 colon)?
**A.** > 100 µM

**Q.** What about the TGI (HCT-15 colon) of the same molecule?
**A.** > 100 µM

**Q.** And the TGI (HL-60(TB) leukemia)?
**A.** 48.3 µM

**Q.** What about the TGI (HOP-62 NSCLC) of the same molecule?
**A.** > 100 µM

**Q.** What about the TGI (HS 578T breast) of the same molecule?
**A.** > 100 µM

**Q.** And the TGI (HT29 colon)?
**A.** > 100 µM

**Q.** And the TGI (IGROV1 ovarian)?
**A.** > 100 µM

**Q.** And the TGI (K-562 leukemia)?
**A.** 41.4 µM

**Q.** What about the TGI (KM12 colon) of the same molecule?
**A.** > 100 µM

**Q.** What about the TGI (LOX IMVI melanoma) of the same molecule?
**A.** 44.1 µM

**Q.** And the TGI (M14 melanoma)?
**A.** > 100 µM

**Q.** And the TGI (MALME-3M melanoma)?
**A.** 92.6 µM

**Q.** What about the TGI (MCF7 breast) of the same molecule?
**A.** > 100 µM

**Q.** What about the TGI (MDA-MB-231 breast) of the same molecule?
**A.** > 100 µM

**Q.** What about the TGI (MDA-MB-435) of the same molecule?
**A.** > 100 µM

**Q.** And the TGI (MOLT-4 leukemia)?
**A.** 62.4 µM

**Q.** What about the TGI (NCI-H226 lung) of the same molecule?
**A.** > 100 µM

**Q.** And the TGI (NCI-H23 lung)?
**A.** > 100 µM

**Q.** What about the TGI (NCI-H460 lung) of the same molecule?
**A.** > 100 µM

**Q.** What about the TGI (NCI/ADR-RES ovarian) of the same molecule?
**A.** > 100 µM

**Q.** What about the TGI (OVCAR-3 ovarian) of the same molecule?
**A.** > 100 µM

**Q.** And the TGI (OVCAR-4 ovarian)?
**A.** > 100 µM

**Q.** And the TGI (OVCAR-5 ovarian)?
**A.** > 100 µM

**Q.** And the TGI (OVCAR-8 ovarian)?
**A.** > 100 µM

**Q.** What about the TGI (PC-3 prostate) of the same molecule?
**A.** > 100 µM

**Q.** And the TGI (RPMI-8226 leukemia)?
**A.** 54.5 µM

**Q.** And the TGI (RXF 393 renal)?
**A.** 58.8 µM

**Q.** What about the TGI (SF-268 CNS) of the same molecule?
**A.** > 100 µM

**Q.** What about the TGI (SF-295 CNS) of the same molecule?
**A.** > 100 µM

**Q.** What about the TGI (SF-539 CNS) of the same molecule?
**A.** > 100 µM

**Q.** And the TGI (SK-MEL-28 melanoma)?
**A.** > 100 µM

**Q.** And the TGI (SK-MEL-5 melanoma)?
**A.** > 100 µM

**Q.** And the TGI (SK-OV-3 ovarian)?
**A.** > 100 µM

**Q.** And the TGI (SN12C renal)?
**A.** > 100 µM

**Q.** And the TGI (SNB-19 CNS)?
**A.** > 100 µM

**Q.** What about the TGI (SR leukemia) of the same molecule?
**A.** 46.4 µM

**Q.** And the TGI (SW-620 colon)?
**A.** > 100 µM

**Q.** And the TGI (TK-10 renal)?
**A.** > 100 µM

**Q.** What about the TGI (U251 CNS) of the same molecule?
**A.** > 100 µM

**Q.** And the TGI (UACC-257 melanoma)?
**A.** > 100 µM

**Q.** And the TGI (UACC-62 melanoma)?
**A.** > 100 µM

**Q.** And the TGI (UO-31 renal)?
**A.** > 100 µM
